Values quoted from earlier work as cited in patent US6043276A (Georgetown University School of Medicine, priority 1999, dated 2000).

Experiments:
[1] = test system: integrase protein of HIV-1; conditions: Fesen et al.; Burke et al.; Mazumder et al.; cited from earlier work
xanthine oxidase = conditions: Chan et al. 1995; Chang et al. 1994; cited from earlier work
RT for HIV = conditions: Kreis et al. 1990; cited from earlier work
HIV = conditions: literature; cited from earlier work
[2] = Lin et al. 1996; cited from earlier work

## O=C(/C=C/c1ccc(O)c(O)c1)OCCc1ccccc1 [CAPE, Caffeic acid phenethyl esters]
[1]
  inhibitory activity on the integrase protein of HIV-1: exert inhibitory activity

## O=C(O)/C=C/c1ccc(O)c(O)c1 [Caffeic acid]
Xanthine oxidase
  xanthine oxidase inhibition: inhibit xanthine oxidase
RT for HIV
  antiviral activity, RT assay for HIV: has antiviral activity

## O=C(/C=C/c1ccc(O)c(O)c1)O[C@H](Cc1ccc(O)c(O)c1)C(=O)O [Rosemarinic acid]
HIV
  anti-HIV activity: possesses anti-HIV activity

## O=C(/C=C/c1ccc(O)c(O)c1/C=C/c1ccc(O)c(O)c1)O[C@H](Cc1ccc(O)c(O)c1)C(=O)O [salvianolic acid A]
[2]
  antioxidant properties: antioxidant properties

## acetylsalvianolic acid
[2]
  antioxidant properties: antioxidant properties
